These results are taken from PMC8545111, “Molecular Basis of the Versatile Regulatory Mechanism of HtrA-Type Protease AlgW from Pseudomonas aeruginosa” (mBio, 2021).

For orientation: Km means the concentration of substrate that gives half-maximal velocity. As a reminder, the Vmax is the rate approached at saturating substrate. A word on the stoichiometry N: it is a count of units in the complex or per binding partner.

Where “and” joins values, the source holds several entries; their conditions need not be identical. Identical values can stand only once. Non-standard residues stand in square brackets, D forms with d. Residues, ends and D or L forms follow the SMILES beside them. *: point of attachment. pNA = O=[N+]([O-])c1ccc(N*)cc1; 2Abz = Nc1ccccc1C(=O)O

The test system of series [1] is AlgW. Briefly: Muc- protease degradation assay. The format is biochemical, Pseudomonas aeruginosa. To be noted: MucB 130 μM, AlgW 25 μM; lipid-A 100 μM, DDM 400 μM or decapeptide 100 μM; 25 mM Tris-HCl pH 7.5, 150 mM NaCl, 37°C; 30 min; gel bands. As for the experimental part: (§1) FIG 1 Degradation of MucA and MucB by AlgW in response to the peptides and lipid signals. (A and B) MucB/RseB (130 μM) was cleaved by AlgW/DegS (25 μM) in the presence of different agonist combinations, including lipid-A (100 μM), lipid-like detergent DDM (400 μM), decapeptide SVRDELRWVF (100 μM), and decapeptide combined with lipid-A or DDM. (C and D) MucB/RseB-protected MucA^peri/RseA^peri degradation by AlgW/DegS in the presence of different lengths of the activating peptides in a time-dependent manner. MucA^peri (125 μM), AlgW (25 μM), MucB (130 μM), activation peptides (tripeptide WVF or decapeptide SVRDELRWVF, 100 μM), and lipid-A (100 μM) were incubated at 37°C in a time-dependent manner in buffer (25 mM Tris-HCl pH 7.5, 150 mM NaCl). Similarly, RseA^peri (125 μM) was cleaved by DegS (25 μM) in the presences of RseB (130 μM), activation peptides (tripeptide YYF or decapeptide DNRDGNVYYF, 100 μM), and lipid-A (100 μM) at 37°C in a time-dependent manner in a phosphate buffer containing 50 mM NaHPO4 (pH 7.5), 200 mM NaCl, 10% glycerol, and 4 mM EDTA. (E and F) MucA^peri/RseA^peri was cleaved by AlgW/DegS in the presence of different agonist combinations in a time-dependent manner. MucA^peri (125 μM), AlgW (25 μM), activation decapeptide SVRDELRWVF (100 μM), and lipid-A (100 μM) were incubated at 37°C in a time-dependent manner in buffer. […]

The test system of series [2] is DegS. Description: Rse- protease degradation assay. The format is biochemical, Escherichia coli. The settings on record: DegS 25 μM, phosphate buffer pH 7.5, 37°C. The protocol: as §1
Series [3] concerns AlgW. Briefly: Quenched fluorescent substrate cleavage by peptide/lipid-activated AlgW (substrate versus velocity). The format is biochemical, Pseudomonas aeruginosa. The settings on record: three independent determinations; for Km / Vmax: substrate gradient 3.125-300 μM, Hill fit; for Km / Hill constants: Tris pH 7.5, 37°C; for Hill constants: substrate gradient; for Vmax: 25 mM Tris pH 7.5, 150 mM NaCl, 37°C, 1 h, fluorescence ex 310/em 420 nm. As for the experimental part: FIG 2 Determination of enzyme apparent kinetic parameters of dual-signal-activated AlgW. (A) Activity assay of tripeptide or decapeptide-activated AlgW using the quenched fluorescent substrates Abz-VLAG-pNA, Abz-TVAW-pNA, and Abz-AAAA-pNA. All assays were placed in a buffer containing 25 mM Tris (pH 7.5) and 150 mM NaCl at 37°C for 1 h by adding 100 μM substrate, 200 nM AlgW, and 10 mM agonist peptides (tripeptide WVF or decapeptide SVRDELRWVF). (B) The apparent Michaelis-Menten parameters of AlgW cleavage quenched fluorescent substrates Abz-VLAG-pNA (100 μM) under the condition of peptide or lipid activation. (C) The activity assay of peptide or DDM activated AlgW using the saturated quenched fluorescent substrates Abz-VLAG-pNA. Under the gradient of peptide or DDM concentration,100 μM substrate and 200 nM AlgW were coincubated with or without 400 μM DDM or 10 mM agonist peptides in a buffer containing 25 mM Tris (pH 7.5) and 150 mM NaCl at 37°C for 1 h. The final assay volume of all experiments was 100 μl, and the appearance of fluorescent products was monitored at 60-s intervals at fluorescence wavelengths of λex = 310 nm and λem = 420 nm. All data points were representative of three independent determinations and were simulated with solid lines through the formula of Y = Vmax · X^h/(Km^h + X^h) or Y = Vmax · X^h/(Khalf^h + X^h). The Kcat for the AlgW trimer was calculated by Kcat = Vmax/(Etotal), (Etotal) = 200/3 nM trimers. Error bars represent the standard deviation.
For the enzyme mechanism of AlgW (30–389) and mutants, two internally quenched fluorescent peptide substrates incorporating the peptidase cleavage site of MucA/MucB, Abz-VLAG-pNA and Abz-TVAW-pNA, were designed and synthesized (GL Biochem Shanghai Ltd., China). In the intact peptide, the fluorescence of the anthraniloyl group is quenched by the P-nitroaniline (Abz is a fluorogenic group, and pNA is a quencher of fluorescence). This quenched fluorescence is liberated upon cleavage of peptide by 200 nM AlgW and mutants (200/3 nM for trimer), resulting in increased fluorescence that can then be monitored fluorometrically. Prior to the assay, all enzyme preparations were incubated with 10 mM agonist peptides (WVF or SVRDELRWVF) for 30 min at room temperature. All assays were placed in a buffer containing 25 mM Tris (pH 7.5) and 150 mM NaCl at 37°C for 1 h, and the final assay volume was 100 μl. The fluorescent degradation products were monitored at 60-s intervals at fluorescence wavelength—λex = 310 nm, λem = 420 nm ([41]). All data points were representative of three independent determinations and were simulated with solid lines with the formula Y = Vmax · X^h/(Km ^h + X^h) or Y = Vmax · X^h/(Khalf^h + X^h) or the Michaelis-Menten formula (Y = Vmax · X/[Km + X]). Substrate versus velocity was used to determine Km and Vmax, and agonists versus velocity was used to determine the half-maximal activation concentration and maximum activation rate of agonists. The fitting and calculation of data were carried out using Prism 7 (GraphPad, CA, USA).
All experiments were performed in independent biological triplicate, and the results of replicates were consistent. The fitting and calculation of data were carried out with Prism 7 (GraphPad, CA, USA). All the enzyme kinetic data points were representative of three independent determinations and were simulated with solid lines through the formula Y = Vmax · X^h/(Km^h + X^h) or Y = Vmax · X^h/(Khalf^h + X^h) or the Michaelis-Menten formula (Y = Vmax · X/[Km + X]). Substrate versus velocity was used to determine Km and Vmax, and agonists versus velocity was used to determine the half-maximal activation concentration and maximum activation rate of agonists; error bars represent the standard deviation.

Series [4] has as its system T1, AlgW-DegS-LA (63–78).
T1 construct: residues 30-389; LA loop 76-97 replaced by the corresponding region 63-78 of DegS
Description: Fluorogenic Abz-VLAG-pNA cleavage by peptide-activated AlgW and LA loop mutants (200 nM), 25 mM Tris pH 7.5, 150 mM NaCl, 37°C, Michaelis-Menten fit. Format: biochemical. The settings on record: n = 3. The protocol: Based on the identified MucA and MucB cleavage sites for AlgW ([6], [13]), self-quenching fluorogenic tetrapeptides derived from 134-VLAG-137 of MucA (Abz-VLAG-pNA), 211-TVAW-214 of MucB (Abz-TVAW-pNA), and alanine tetrapeptide (Abz-AAAA-pNA) were synthesized and subjected to real-time measurement of AlgW proteolytic activity in the presence of excessive peptides (10 mM) (Fig. 2A). Compared with the negative-control group (using Abz-AAAA-pNA substrate), both Abz-VLAG-pNA and Abz-TVAW-pNA could be efficiently cleaved by AlgW. […]
For the enzyme mechanism of AlgW (30–389) and mutants, two internally quenched fluorescent peptide substrates incorporating the peptidase cleavage site of MucA/MucB, Abz-VLAG-pNA and Abz-TVAW-pNA, were designed and synthesized (GL Biochem Shanghai Ltd., China). In the intact peptide, the fluorescence of the anthraniloyl group is quenched by the P-nitroaniline (Abz is a fluorogenic group, and pNA is a quencher of fluorescence). This quenched fluorescence is liberated upon cleavage of peptide by 200 nM AlgW and mutants (200/3 nM for trimer), resulting in increased fluorescence that can then be monitored fluorometrically. […] The fluorescent degradation products were monitored at 60-s intervals at fluorescence wavelength—λex = 310 nm, λem = 420 nm ([41]). […]

Series [5] concerns the molecule itself. Briefly: crystal structure; protein mixed with peptide activator (tripeptide WVF or decapeptide …) prior to crystallization; hanging-drop vapor diffusion at 18°C; molecular replacement.
Where [6] appears, read: decapeptide SVRDELRWVF (10 mM) activated AlgW 200 nM.
[7] abbreviates: decapeptide SVRDELRWVF (10 mM, 30 min RT pre-incubation) activated AlgW 200 nM.
Setting [8] is: tripeptide WVF (10 mM) activated AlgW 200 nM.
Setting [9] is: tripeptide WVF (10 mM, 30 min RT pre-incubation) activated AlgW 200 nM.

For the molecule lipid-A, in series [1], the “MucB cleavage by AlgW” value was “could be activated”. In addition, the “RseA^peri degradation by DegS” value in series [2] (RseA^peri 125 μM, lipid-A 100 μM with or without decapeptide DNRDGNVYYF 100 μM) is listed as “did not display obvious direct or cooperative activation”.
Regarding `CC(C)C[C@H](NC(=O)[C@@H](NC(=O)c1ccccc1N)C(C)C)C(=O)N[C@@H](C)C(=O)NCC(=O)Nc1ccc([N+](=O)[O-])cc1` [Abz-VLAG-pNA] (H-[2Abz]VLAG-pNA), the Km in series [3] (setting [6]) stood at 50.1 ± 9.65 µM; in series [3] (setting [8]), 14.8 ± 2.16 µM. Besides, the Hill constants was ~1 and 0.95 ± 0.09 in series [3] (setting [6]); 1.51 ± 0.29 in series [3] (setting [8]). Moreover, the Vmax in series [3] (setting [7]) is 187 ± 12.83 µM/min; in series [3] (setting [9]), 81.23 ± 4.02 µM/min.
Consider `CC(C)C[C@H](NC(=O)[C@@H](NC(=O)c1ccccc1N)C(C)C)C(=O)N[C@@H](C)C(=O)NCC(=O)Nc1ccc([N+](=O)[O-])cc1` [Abz-VLAG-pNA, anthraniloyl-Val-Leu-Ala-Gly-p-nitroaniline (quenched fluorogenic tetrapeptide, MucA 134-137)] (H-[2Abz]VLAG-pNA), for which the Km in series [4] came out at 12 ± 2.85 µM.
Take DNRDGNVYYF: the “RseB cleavage by DegS” value in series [2] (RseB 130 μM, decapeptide 100 μM) is “no proteolysis was noticed”.
`CC(C)[C@H](NC(=O)[C@@H](NC(=O)c1ccccc1N)[C@@H](C)O)C(=O)N[C@@H](C)C(=O)N[C@@H](Cc1c[nH]c2ccccc12)C(=O)Nc1ccc([N+](=O)[O-])cc1` [Abz-TVAW-pNA] (H-[2Abz]TVAW-pNA): the Km was 26.9 ± 1.48 µM in series [3] (setting [6]) and 25.1 ± 1.93 µM in series [3] (setting [8]). Besides, the Hill constants was 1.26 and 1.26 ± 0.07 in series [3] (setting [6]); 1.25 and 1.25 ± 0.09 in series [3] (setting [8]). In addition, the values for the Vmax in series [3] (setting [7]) and in series [3] (setting [9]) were 319.5 ± 6.42 µM/min and 264.1 ± 7.31 µM/min, respectively.

B1: AlgW_(52-389), periplasmic soluble domain of AlgW for crystallization (enzyme)
chain: PVSYANAVSRAAPAVANLYTTKMVSKPSHPLFDDPMFRRFFGDNLPQQKRMESSLGSAVIMSAEGYLLTNNHVTAGADQIIVALRDGRETIAQLVGSDPETDLAVLKIDLKNLPAMTLGRSDGIRTGDVCLAIGNPFGVGQTVTMGIISATGRNQLGLNTYEDFIQTDAAINPGNSGGALVDAAGNLIGINTAIFSKSGGSQGIGFAIPTKLALEVMQSIIEHGQVIRGWLGVEVKALTPELAESLGLGETAGIVVAGVYRDGPAARGGLLPGDVILTIDKQEASDGRRSMNQVARTRPGQKISIVVLRNGQKVNLTAEVGLRPPPAPAPQQKQDGGE
notes: Vector pET22b-(LEVLFQ/GP)-6xHis has a PreScission site that allows removal of the His tag; source: E. coli BL21(DE3), purified (Ni-NTA, Superdex-75 SEC)
For the molecule B1, the “stoichiometry N” value in series [5] worked out at 3.

B2: AlgWS227A (inactive mutant of the periplasmic soluble domain of AlgW, for crystallization) (enzyme)
chain: PVSYANAVSRAAPAVANLYTTKMVSKPSHPLFDDPMFRRFFGDNLPQQKRMESSLGSAVIMSAEGYLLTNNHVTAGADQIIVALRDGRETIAQLVGSDPETDLAVLKIDLKNLPAMTLGRSDGIRTGDVCLAIGNPFGVGQTVTMGIISATGRNQLGLNTYEDFIQTDAAINPGNAGGALVDAAGNLIGINTAIFSKSGGSQGIGFAIPTKLALEVMQSIIEHGQVIRGWLGVEVKALTPELAESLGLGETAGIVVAGVYRDGPAARGGLLPGDVILTIDKQEASDGRRSMNQVARTRPGQKISIVVLRNGQKVNLTAEVGLRPPPAPAPQQKQDGGE
notes: AlgW of Pseudomonas aeruginosa, residues 52-389 (construct for crystallization), catalytic serine S227 changed to alanine; source: E. coli BL21(DE3), purified (Ni-NTA, Superdex-75 SEC)
Take B2: in series [5], the “stoichiometry N” value was 3.
